Experimental data published in patent publication US20240245786A1, “SMALL MOLECULE DEGRADERS OF PHOSPHATIDYLINOSITOL-5-PHOSPHATE 4-KINASE TYPE 2 AND USES THEREOF” (DANA-FARBER CANCER INSTITUTE, INC., priority 2020, published 2024).

Tests used:
[1] = target: T1, ETS2 Repressor Factor (ERF) (Homo sapiens, UniProt P50548); experiment: Proteomics analysis (TMT LC-MS3) of Molt4 cells, ERF; details: 1 μM, 5 h
T1 sequence (P50548 1-548): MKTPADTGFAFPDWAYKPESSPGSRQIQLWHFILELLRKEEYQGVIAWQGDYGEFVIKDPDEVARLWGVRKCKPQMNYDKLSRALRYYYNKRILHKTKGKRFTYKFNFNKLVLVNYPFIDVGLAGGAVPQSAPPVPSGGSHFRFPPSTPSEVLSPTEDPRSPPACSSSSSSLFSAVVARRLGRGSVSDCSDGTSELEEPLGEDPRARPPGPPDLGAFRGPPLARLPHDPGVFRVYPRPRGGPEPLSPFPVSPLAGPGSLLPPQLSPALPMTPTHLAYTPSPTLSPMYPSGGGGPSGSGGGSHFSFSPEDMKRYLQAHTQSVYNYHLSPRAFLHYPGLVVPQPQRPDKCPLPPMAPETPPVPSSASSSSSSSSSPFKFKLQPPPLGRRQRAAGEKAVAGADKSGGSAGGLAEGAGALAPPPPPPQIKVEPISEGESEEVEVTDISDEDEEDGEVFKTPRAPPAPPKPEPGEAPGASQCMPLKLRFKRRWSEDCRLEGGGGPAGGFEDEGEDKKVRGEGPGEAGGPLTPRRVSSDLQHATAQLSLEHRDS
Procedure: (§1) Molt4 cells were treated with DMSO or the indicated compound for 5 h, and cells were harvested by centrifugation. […] The homogenized sample was clarified by centrifugation at 20,000×g for 10 min at 4° C. A micro-BCA assay (Pierce™) was used to determine the final protein concentration in the cell lysate. […] Proteins were precipitated using methanol/chloroform. In brief, four volumes of methanol were added to the cell lysate, followed by one volume of chloroform, and finally three volumes of water. The mixture was vortexed and centrifuged at 14,000×g for 5 min to separate the chloroform phase from the aqueous phase. […] The sample channels were combined in a 1:1:1:1:1:1:1:1:1:1 ratio, desalted using C18 solid phase extraction cartridges (Waters®) and analyzed by liquid chromatography-mass spectrometry (LC-MS) for channel ratio comparison. Samples were then combined using the adjusted volumes determined in the channel ratio analysis and dried down in a speed vacuum. […]
(§2) Proteome Discoverer™ 2.2 (Thermo Fisher) was used for RAW file processing and controlling peptide and protein level false discovery rates, assembling proteins from peptides, and protein quantification from peptides. […] TMT reporter ion intensities were measured using a 0.003 Da window around the theoretical m z for each reporter ion in the MS3 scan. […]

[2] = target: T1, ETS2 Repressor Factor (ERF); experiment: Immunoblot of ERF degradation in Molt4 cells (FIG. 1D); type: cell-based; set-up: immunoblot of PIP4K2A, PIP4K2B, PIP4K2C, and ERF degradation in Molt4 cells; endogenous in cells; host or cells: Molt4; details: 6 h or 8 h
Procedure: Molt4 cells were treated with the indicated compounds for the indicated time in FIG. 1A-FIG. 1F and FIG. 3A-FIG. 3B. Cells were lysed in M-PER™ buffer (Thermo Scientific) containing protease/phosphatase inhibitor cocktail (Roche®). Protein concentration was measured using a bicinchoninic acid (BCA) assay (Pierce™). Equivalent amounts of each sample were loaded on 4-12% Bis-Tris gels (Invitrogen™), transferred to nitrocellulose membranes, and immunoblotted with antibodies against the indicated proteins. IRDye®800-labeled goat anti-rabbit IgG and IRDye®680-labeled goat anti-mouse IgG (LI-COR®) secondary antibodies were purchased for LI-COR®, and membranes were detected on an Odyssey® detection system (LI-COR® Biosciences).

PIP4K2A [3] = target: T2, PIP4K2A (Homo sapiens, UniProt P48426); experiment: IC50 for bifunctional compound 1, PIP4K2A (biochemical binding affinity)
T2 sequence (P48426 1-406): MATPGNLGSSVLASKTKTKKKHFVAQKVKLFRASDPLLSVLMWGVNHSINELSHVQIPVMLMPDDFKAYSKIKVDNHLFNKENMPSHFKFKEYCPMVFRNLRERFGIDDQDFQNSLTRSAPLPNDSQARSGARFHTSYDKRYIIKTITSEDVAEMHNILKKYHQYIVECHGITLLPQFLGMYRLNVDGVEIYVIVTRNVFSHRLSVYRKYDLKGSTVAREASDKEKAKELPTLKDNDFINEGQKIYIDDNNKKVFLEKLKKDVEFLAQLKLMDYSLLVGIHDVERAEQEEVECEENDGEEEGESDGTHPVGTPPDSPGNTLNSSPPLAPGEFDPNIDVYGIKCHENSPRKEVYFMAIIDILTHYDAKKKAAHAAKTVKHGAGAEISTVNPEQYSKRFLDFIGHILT

PIP4K2B [4] = target: T3, PIP4K2B (Homo sapiens, UniProt P78356); experiment: IC50 for bifunctional compound 1, PIP4K2B (biochemical binding affinity)
T3 sequence (P78356 1-416): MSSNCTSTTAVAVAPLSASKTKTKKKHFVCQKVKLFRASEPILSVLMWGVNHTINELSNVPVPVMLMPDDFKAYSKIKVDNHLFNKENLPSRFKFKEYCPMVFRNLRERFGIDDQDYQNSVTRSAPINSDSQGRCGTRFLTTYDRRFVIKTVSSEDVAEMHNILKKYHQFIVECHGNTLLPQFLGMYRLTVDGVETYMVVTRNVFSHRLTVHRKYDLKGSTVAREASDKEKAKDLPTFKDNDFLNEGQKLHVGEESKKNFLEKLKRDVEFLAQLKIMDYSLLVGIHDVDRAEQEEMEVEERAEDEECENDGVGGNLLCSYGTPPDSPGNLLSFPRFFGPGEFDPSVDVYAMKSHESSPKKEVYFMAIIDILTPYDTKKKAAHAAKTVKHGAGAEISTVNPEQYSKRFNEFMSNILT

PIP4K2B [5] = target: T3, PIP4K2B; experiment: Proteomics analysis (TMT LC-MS3) of Molt4 cells, PIP4K2B abundance; details: 1 μM, 5 h
Procedure: as §1, §2

PIP4K2A [6] = target: T2, PIP4K2A; experiment: Proteomics analysis (TMT LC-MS3) of Molt4 cells, PIP4K2A abundance; details: 1 μM, 5 h
Procedure: as §1, §2

With `Cc1ncsc1-c1ccc([C@H](C)NC(=O)C2C[C@@H](O)CN2C(=O)[C@@H](NC(=O)CCCCC(=O)Nc2ccc(C(=O)Nc3cccc(Nc4cc(-c5c[nH]c6ccccc56)ncn4)c3)cc2)C(C)(C)C)cc1` (stereo partly drawn) [Compound 1, N1-(4-((3-((6-(1H-indol-3-yl)pyrimidin-4-yl)amino)phenyl)carbamoyl)phenyl)-N6-((2S)-1-((4R)-4-hydroxy-2-(((S)-1-(4-(4-methylthiazol-5-yl)phenyl)ethyl)carbamoyl)pyrrolidin-1-yl)-3,3-dimethyl-1-oxobutan-2-yl)adipamide] the “ERF degradation, validation by proteomics analysis” value [1] was “not validated as a confirmed degraded protein”, the “ERF degradation, as seen in FIG. 1D” value [2] was “scored as a potential degraded protein” and the IC50 (PIP4K2A [3]) was over 10 µM. For the same compound, the IC50 (PIP4K2B [4]) was 14 µM, the “change in abundance of PIP4K2B (proteomics)” value (PIP4K2B [5]) was “no detectable change in abundance” and the “change in abundance of PIP4K2A (proteomics)” value (PIP4K2A [6]) was “no detectable change in abundance”.
